Results taken from US11117883B2 (Ariad Pharmaceuticals, Inc., priority 2016, dated 2021).

Key:
Assay in all cases: c-Kit assay: Ba/F3 KIT mutant viability (Cell Titer-Glo, 72 hours)
Type in all cases: cell-based
[1] = target: T1, BAF3 FL KIT EX11DEL/V654A (Homo sapiens, UniProt P10721, V654A, cells depend on it, form not given); details: viability after 72 hours
T1 construct: "BAF3 FL KIT EX11DEL/ V654A"
Protocol: (§1) KIT cDNAs were synthesized by GenScript and cloned into the pLVX-IRES-Puro vector (Clontech). Viral particles were produced by transfecting pLVX-IRES-puro vectors containing KIT mutant genes into HEK293 cells (Invitrogen) using the Trans-Lentiviral ORF Packaging Kit (Thermo Scientific). 48 hours post-transfection, virus-containing supernatants were harvested and incubated for another 48-72 hours with parental Ba/F3 cells (DSMZ) in the presence of 10 ng/mL […] (R&D Systems). Transduced Ba/F3 cells were then selected by IL-3 withdrawal and puromycin (0.5-1 μg/mL, Invitrogen).
(§2) Cell lines (i.e., EX11DEL, EX11DEL/D816H, EX11DEL/T670I, and EX11DEL/V654A) were plated into 384 well plates using RPMI 1640 supplemented with 10% FBS at densities that produced linear growth and incubated at 37° C. in 5% (v/v) CO2. Cells were treated with eight concentrations of compound over a 4-fold dilution (10 μM to 0.61 nM) and viability was assessed using Cell Titer-Glo assay (Promega) after 72 hours. Data were plotted as percent viability relative to vehicle-treated cells. Dose-responses curves were generated and used to calculate IC50 values.

[2] = target: T2, BAF3 FL KIT EX11DEL/T6701 (Homo sapiens, UniProt P10721, T670I, cells depend on it, form not given); details: EX11DEL/T6701, viability after 72 hours
T2 construct: "BAF3 FL KIT EX11DEL/ T6701"
T2 sequence (P10721 with tags, fused parts or gaps DEL557-558/T670I, form open): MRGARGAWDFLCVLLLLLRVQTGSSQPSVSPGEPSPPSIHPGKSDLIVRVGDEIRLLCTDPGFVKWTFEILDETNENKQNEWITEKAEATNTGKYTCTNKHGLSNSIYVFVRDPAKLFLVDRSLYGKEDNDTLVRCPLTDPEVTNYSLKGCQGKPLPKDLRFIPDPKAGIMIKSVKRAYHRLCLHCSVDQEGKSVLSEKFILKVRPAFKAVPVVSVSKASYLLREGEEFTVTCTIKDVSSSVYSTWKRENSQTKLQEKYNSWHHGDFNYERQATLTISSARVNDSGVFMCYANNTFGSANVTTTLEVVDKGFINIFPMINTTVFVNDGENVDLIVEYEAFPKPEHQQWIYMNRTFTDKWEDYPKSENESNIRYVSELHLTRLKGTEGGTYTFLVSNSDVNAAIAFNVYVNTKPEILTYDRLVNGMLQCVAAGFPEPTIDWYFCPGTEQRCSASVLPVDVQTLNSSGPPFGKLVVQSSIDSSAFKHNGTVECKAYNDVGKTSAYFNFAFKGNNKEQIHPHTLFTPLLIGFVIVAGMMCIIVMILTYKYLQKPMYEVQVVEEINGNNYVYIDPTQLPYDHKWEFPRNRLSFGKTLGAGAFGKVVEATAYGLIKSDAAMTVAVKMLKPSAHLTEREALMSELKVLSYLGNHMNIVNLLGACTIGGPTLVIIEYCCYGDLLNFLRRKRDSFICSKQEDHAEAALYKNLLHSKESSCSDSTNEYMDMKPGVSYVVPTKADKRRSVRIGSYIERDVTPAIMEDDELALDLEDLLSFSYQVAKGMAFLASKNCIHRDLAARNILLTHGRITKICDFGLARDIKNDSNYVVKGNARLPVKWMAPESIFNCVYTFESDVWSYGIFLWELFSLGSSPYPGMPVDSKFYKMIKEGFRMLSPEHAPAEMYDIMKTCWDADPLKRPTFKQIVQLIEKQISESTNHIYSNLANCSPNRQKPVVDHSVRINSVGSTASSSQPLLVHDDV
Protocol: as §1, §2

[3] = target: T3, BAF3 FL KIT EX11DEL/D816H (Homo sapiens, UniProt P10721, D816H, cells depend on it, form not given); details: viability after 72 hours
T3 construct: "BAF3 FL KIT EX11DEL/ D816H"
T3 sequence (P10721 with tags, fused parts or gaps DEL557-558/D816H, form open): as the sequence (P10721 with tags, fused parts or gaps DEL557-558/T670I, form open) above, with I668T, D814H counted along it
Protocol: as §1, §2

BAF3 FL KIT EX11DEL = target: T4, BAF3 FL KIT EX11DEL (Homo sapiens, UniProt P10721, cells depend on it, form not given); details: viability after 72 hours
T4 construct: "BAF3 FL KIT EX11DEL"
T4 sequence (P10721 with tags, fused parts or gaps DEL557-558): as the sequence (P10721 with tags, fused parts or gaps DEL557-558/T670I, form open) above, with I668T counted along it
Protocol: as §1, §2

T1 sequence (P10721 with tags, fused parts or gaps DEL557-558/V654A, form open): as the sequence (P10721 with tags, fused parts or gaps DEL557-558/T670I, form open) above, with V652A, I668T counted along it

Compound: CNC(=O)Cn1cnc2cc(C#Cc3cc(C(=O)Nc4cc(C(F)(F)F)ccn4)ccc3C)ccc21 [Compound I-1, 4-Methyl-3-((1-(2-(methylamino)-2-oxoethyl)-1H-benzo[d]imidazol-5-yl)ethynyl)-N-(4-(trifluoromethyl)pyridin-2-yl)benzamide]
- GI50 [1]: 100 to 10000 nM
- GI50 [2]: 100 to 10000 nM
- GI50 [3]: 100 to 10000 nM
- GI50 (BAF3 FL KIT EX11DEL): < 10 nM

Compound: Cc1ccc(C(=O)Nc2cc(C(F)(F)F)ccn2)cc1C#Cc1ccc2[nH]cnc2c1 [Compound I-2, 3-((1H-benzo[d]imidazol-5-yl)ethynyl)-4-methyl-N-(4-(trifluoromethyl)pyridin-2-yl)benzamide]
- GI50 [1]: 10 to 50 nM
- GI50 [2]: 10 to 50 nM
- GI50 [3]: 50 to 100 nM
- GI50 (BAF3 FL KIT EX11DEL): < 10 nM

Compound: Cc1ccc(C(=O)Nc2cc(C(F)(F)F)ccn2)cc1C#Cc1ccc2c(c1)ncn2CCN(C)C [Compound I-3, 3-((1-(2-(dimethylamino)ethyl)-1H-benzo[d]imidazol-5-yl)ethynyl)-4-methyl-N-(4-(trifluoromethyl)pyridin-2-yl)benzamide]
- GI50 [1]: 100 to 10000 nM
- GI50 [2]: 100 to 10000 nM
- GI50 [3]: 100 to 10000 nM
- GI50 (BAF3 FL KIT EX11DEL): 50 to 100 nM

Compound: COCCn1cnc2cc(C#Cc3cc(C(=O)Nc4cc(C(F)(F)F)ccn4)ccc3C)ccc21 [Compound I-4, 3-((1-(2-methoxyethyl)-1H-benzo[d]imidazol-5-yl)ethynyl)-4-methyl-N-(4-(trifluoromethyl)pyridin-2-yl)benzamide]
- GI50 [1]: 50 to 100 nM
- GI50 [2]: 50 to 100 nM
- GI50 [3]: 100 to 10000 nM
- GI50 (BAF3 FL KIT EX11DEL): < 10 nM

Compound: Cc1ccc(C(=O)Nc2cc(C(F)(F)F)ccn2)cc1C#Cc1ccc2c(c1)ncn2CCN1CCOCC1 [Compound I-5, 4-methyl-3-((1-(2-morpholinoethyl)-1H-benzo[d]imidazol-5-yl)ethynyl)-N-(4-(trifluoromethyl)pyridin-2-yl)benzamide]
- GI50 [1]: 100 to 10000 nM
- GI50 [2]: 100 to 10000 nM
- GI50 [3]: 100 to 10000 nM
- GI50 (BAF3 FL KIT EX11DEL): 50 to 100 nM

Compound: Cc1ccc(C(=O)Nc2cc(C(F)(F)F)ccn2)cc1C#Cc1ccc2c(c1)ncn2CCCN(C)C [Compound I-6, 3-((1-(3-(dimethylamino)propyl)-1H-benzo[d]imidazol-5-yl)ethynyl)-4-methyl-N-(4-(trifluoromethyl)pyridin-2-yl)benzamide]
- GI50 [1]: 100 to 10000 nM
- GI50 [2]: 50 to 100 nM
- GI50 [3]: 100 to 10000 nM
- GI50 (BAF3 FL KIT EX11DEL): 10 to 50 nM

Compound: CCn1cnc2cc(C#Cc3cc(C(=O)Nc4cc(C(F)(F)F)ccn4)ccc3C)ccc21 [Compound I-7, 3-((1-ethyl-H-benzo[d]imidazol-5-yl)ethynyl)-4-methyl-N-(4-(trifluoromethyl)pyridin-2-yl)benzamide]
- GI50 [1]: 100 to 10000 nM
- GI50 [2]: 50 to 100 nM
- GI50 [3]: 100 to 10000 nM
- GI50 (BAF3 FL KIT EX11DEL): 10 to 50 nM

Compound: Cc1ccc(C(=O)Nc2cc(C(F)(F)F)ccn2)cc1C#Cc1ccc2c(c1)ncn2C [Compound I-8, 4-methyl-3-((1-methyl-1H-benzo[d]imidazol-5-yl)ethynyl)-N-(4-(trifluoromethyl)pyridin-2-yl)benzamide]
- GI50 [1]: 10 to 50 nM
- GI50 [2]: 10 to 50 nM
- GI50 [3]: 50 to 100 nM
- GI50 (BAF3 FL KIT EX11DEL): 10 to 50 nM

Compound: Cc1ccc(C(=O)Nc2cc(C(F)(F)F)ccn2)cc1C#Cc1ccc2nc(N)[nH]c2c1 [Compound I-10, 3-((2-amino-1H-benzo[d]imidazol-6-yl)ethynyl)-4-methyl-N-(4-(trifluoromethyl)pyridin-2-yl)benzamide]
- GI50 [1]: 100 to 10000 nM
- GI50 [2]: 100 to 10000 nM
- GI50 [3]: 100 to 10000 nM
- GI50 (BAF3 FL KIT EX11DEL): 10 to 50 nM

Compound: Cc1ccc(C(=O)Nc2cc(C(F)(F)F)ccn2)cc1C#Cc1ccc2ncn(C)c2c1 [Compound I-11, 4-methyl-3-((1-methyl-1H-benzo[d]imidazol-6-yl)ethynyl)-N-(4-(trifluoromethyl)pyridin-2-yl)benzamide]
- GI50 [1]: 100 to 10000 nM
- GI50 [2]: 100 to 10000 nM
- GI50 [3]: 100 to 10000 nM
- GI50 (BAF3 FL KIT EX11DEL): 100 to 10000 nM

Compound: Cc1ccc(C(=O)Nc2cc(C(F)(F)F)ccn2)cc1C#Cc1ccc2c(c1)ncn2Cc1cccnc1 [Compound I-12, 4-methyl-3-((1-(pyridin-3-ylmethyl)-1H-benzo[d]imidazol-5-yl)ethynyl)-N-(4-(trifluoromethyl)pyridin-2-yl)benzamide]
- GI50 [1]: 100 to 10000 nM
- GI50 [2]: 100 to 10000 nM
- GI50 [3]: 100 to 10000 nM
- GI50 (BAF3 FL KIT EX11DEL): 10 to 50 nM
